Where a name gives a salt, the structure may show the parent alone. Read-outs that look alike come from different tables or passages of the source.

Our source for the IC50 values is patent publication US20260076973A1 (priority 2023, published 2026).

The assay concerns SARS-CoV-2 (WA1). Description: microbe, parasite or virus in culture. In kind it is cell-based.
Where [1] appears, read: Severe acute respiratory syndrome coronavirus 2, Vero C1008, VIRADEM compounds, SARS-CoV-2(WA1) CPE assay, Round 2, concentration range 1000-0.05 nM, Vero E6, read-out: IC50.
Setting [2] is: VIRADEM compounds, SARS-CoV-2(WA1) CPE assay, Round 2, concentration range 1000-0.05 nM, Vero E6, read-out: IC50.
[3] abbreviates: Severe acute respiratory syndrome coronavirus 2, Vero C1008.

`c1cc2c(cc1CNc1nc(N3CCOCC3)nc(N3CCOCC3)n1)OCO2` [VIRADEM-15201, Benzo[1,3]dioxol-5-ylmethyl-(4,6-dimorpholin-4-yl-[1,3,5]triazin-2-yl)-amine]: under setting [1], the half-maximal inhibitory concentration (IC50) is above 1000 nM.

Turning to `S=C(NNc1nc(N2CCOCC2)nc(N2CCOCC2)n1)Nc1ccccc1` [VIRADEM-10867, 2-(4,6-dimorpholine-4-yl-1,3,5-triazine-2-yl)-N-phenylhydrazine-carbothioamide], under setting [1], the IC50 is above 1000 nM.

`Cc1ccc(Nc2nc(Nc3cccc4ccccc34)nc(N3CCOCC3)n2)cc1` [VIRADEM-15279, 6-Morpholin-4-yl-N-naphtalen-1-yl-N^1-p-tolyl-[1,3,5]triazine-2,4-diamine]: the half-inhibitory concentration (IC50) under setting [2] was found to be 80 nM.

With `c1cc2c(cc1Nc1nc(N3CCCC3)nc(N3CCCC3)n1)OCCO2` [VIRADEM-11596, -(2,3-dihydrobenzo[1,4]dioxin-6-yl)-(4,6-dipyrrolidin-1-yl-[1,3,5]triazin-2-yl)-amine hydrochloride], the concentration for half-maximal inhibition (IC50) under setting [2] is above 1000 nM.

For `CCc1ccc(Nc2nc(N3CCOCC3)nc(N3CCOCC3)n2)cc1` [VIRADEM-10883, (4,6-Dimorpholin-4-yl-[1,3,5]triazin-2-yl)-(4-ethylphenyl)-amine hydrochloride], the half-maximal inhibitory concentration (IC50) under setting [1] was 990 nM.

Under setting [3], `Cc1ccc(Nc2nc(Nc3cccc(C(F)(F)F)c3)nc(N3CCOCC3)n2)cc1C` [VIRADEM-11914, N-(3,4-Dimethylphenyl)-6-morpholin-4-yl-N^1-(3-trifluoromethylphenyl)-[1,3,5]triazine-2,4-diamine] registered a 50% inhibitory concentration (IC50) of 130 nM.

Take `Cc1cccc(N2C(N3CCOCC3)=NC(N)=NC2Nc2ccc(Cl)cc2)c1` (centres unmarked) [VIRADEM-11680, N-(4-Chlorophenyl)-6-morpholin-4-yl-N^1-m-tolyl-[1,3,5]triazine-2,4-diamine hydrochloride]: the 50% inhibitory concentration (IC50) under setting [1] is above 1000 nM.

On to `C1CCCN(c2nc(N3CCOCC3)nc(N3CCOCC3)n2)CC1` [VIRADEM-16523, 1-(4,6-Dimorpholin-4-yl-[1,3,5]triazin-2-yl)-azepane], for which the IC50 under setting [1] is above 1000 nM.

For the compound `COc1ccc(Nc2nc(N3CCOCC3)nc(N3CCOCC3)n2)cc1` [VIRADEM-10885, (4,6-Dimorpholin-4-yl-[1,3,5]triazin-2-yl)-(4-methoxyphenyl)-amine hydrochloride], the IC50 under setting [1] is above 1000 nM.

In the case of `Cc1cccc(N2C(N3CCOCC3)=NC(N)=NC2Nc2ccc(F)cc2)c1` (centres unmarked) [VIRADEM-11787, N-(4-Fluorophenyl)-6-morpholin-4-yl-N^1-m-tolyl-[1,3,5]triazine-2,4-diamine hydrochloride], under setting [1], the IC50 stood at 360 nM.

Regarding `Cc1ccc(Nc2nc(N3CCCCCC3)nc(N3CCOCC3)n2)cc1` [VIRADEM-15229, (4-Azepan-1-yl-6-morpholin-4-yl-[1,3,5]triazin-2-yl)-p-tolyl-amine], under setting [1], the IC50 stood at 850 nM.

`COc1ccc(Nc2nc(Nc3cccc4ccccc34)nc(N3CCOCC3)n2)cc1` [VIRADEM-15262, N-(4-Methoxyphenyl)-6-morpholin-4-yl-N^1-naphthalen-[1,3,5]triazine-2,4-diamine]: the IC50 under setting [2] amounted to 440 nM.

Take `COc1cccc(NC2N=C(N)N=C(N3CCOCC3)N2c2ccccc2)c1` (centres unmarked) [VIRADEM-12252, N-(3-Methoxyphenyl)-6-morpholin-4-yl-N^1-phenyl-[1,3,5]triazine-2,4-diamine hydrochloride]: the IC50 under setting [1] worked out at 110 nM.

Regarding “N-(3-Fluorophenyl)-6-pyrrolidin-1-yl-1,3,5]triazine-2,4-diamine hydrochloride [VIRADEM-12180]”, the 50% inhibitory concentration (IC50) under setting [2] was above 1000 nM.

For the compound `CCOC(=O)c1ccc(Nc2nc(Nc3ccc(F)cc3)nc(N3CCOCC3)n2)cc1` [VIRADEM-11660, 4-[4-(4-Fluorophenylamino)-6-morpholin-4-yl-[1,3,5]triazin-2-ylamino]benzoic acid ethyl ester], the 50% inhibitory concentration (IC50) under setting [1] was determined as 120 nM.

Turning to `CCCCc1ccc(Nc2nc(N3CCOCC3)nc(N3CCOCC3)n2)cc1` [VIRADEM-10257, (4-n-Butylphenyl)-(4,6-dimorpholin-4-yl-[1,3,5]triazin-2-yl)-amine hydrochloride], under setting [1], the IC50 is above 1000 nM.

`Clc1ccc(Nc2nc(N3CCOCC3)nc(N3CCOCC3)n2)cc1` [VIRADEM-10894, (4-Chlorophenyl)-(4,6-dimorpholin-4-yl-[1,3,5]triazin-2-yl)-amine hydrochloride]: the half-inhibitory concentration (IC50) under setting [1] came out at 840 nM.

As to `Cc1ccc(Nc2nc(Nc3cccc(F)c3)nc(N3CCOCC3)n2)cc1Cl` [VIRADEM-12292, N-(3-Chloro-4-methylphenyl)-N^1-(3-fluorophenyl)-6-morpholin-4-yl-[1,3,5]triazine-2,4-diamine], inhibition under setting [3] was half-maximal at 150 nM (IC50).

As to `Cc1ccc(N2C(N3CCOCC3)=NC(N)=NC2Nc2cccc(F)c2)cc1` (centres unmarked) [VIRADEM-11785, N-(3-Fluorophenyl)-6-morpholin-4-yl-N^1-p-tolyl-[1,3,5]triazine-2,4-diamine hydrochloride], the IC50 under setting [1] came to 170 nM.

Turning to `CCOc1ccc(NC2N=C(N)N=C(N3CCOCC3)N2c2cccc(C)c2)cc1` (centres unmarked) [VIRADEM-11794, N-(4-Ethoxyphenyl)-6-morpholin-4-yl-N^1-m-tolyl-[1,3,5]triazine-2,4-diamine hydrochloride], the IC50 under setting [1] was found to be 270 nM.

On to `CC(=O)c1cccc(Nc2nc(Nc3ccc(F)cc3)nc(N3CCOCC3)n2)c1` [VIRADEM-11883, 1-{3-[4-(4-Fluorophenylamino)-6-morpholin-4-yl-[1,3,5]triazin-2-ylamino]-phenyl}-ethanone hydrochloride], for which the half-maximal inhibitory concentration (IC50) under setting [1] is above 1000 nM.

For `CCc1ccc(Nc2nc(Nc3cc(Cl)cc(Cl)c3)nc(N3CCOCC3)n2)cc1` [VIRADEM-12327, N-(3,5-Dichlorophenyl)-N^1-(4-ethylphenyl)-6-morpholin-4-yl-[1,3,5]triazine-2,4-diamine], the 50% inhibitory concentration (IC50) under setting [1] stood at 730 nM.

Consider `Clc1cccc(Nc2nc(N3CCCCC3)nc(N3CCCCC3)n2)c1` [VIRADEM-11499, (3-Chlorophenyl)-(4,6-dipiperidine-1-yl-[1,3,5]triazin-2-yl)-amine hydrochloride], for which the 50% inhibitory concentration (IC50) under setting [1] was above 1000 nM.

Regarding `COC(=O)c1ccc(Nc2nc(N3CCOCC3)nc(N3CCOCC3)n2)cc1` [VIRADEM-10890, 4-(4,6-Dimorpholin-4-yl-[1,3,5]triazin-2-ylamino-benzoic acid methyl ester hydrochloride], the IC50 under setting [2] was above 1000 nM.

As for `C1CCC(Nc2nc(N3CCOCC3)nc(N3CCOCC3)n2)C1` [VIRADEM-14309, Cyclopentyl-(4,6-dimorpholin-4-yl-[1,3,5]triazin-2-yl)-amine], the IC50 under setting [1] was above 1000 nM.

`c1ccc(CCNc2nc(N3CCOCC3)nc(N3CCOCC3)n2)cc1` [VIRADEM-15230, (4,6-Dimorpholin-4-yl-[1,3,5]triazin-2-yl)-phenetylamine]: the 50% inhibitory concentration (IC50) under setting [2] amounted to 460 nM.

As for `COc1ccc(Nc2nc(N3CCOCC3)nc(N3CCC(C)CC3)n2)cc1` [VIRADEM-15220, (4-Methoxyphenyl)-[4-(4-methylpiperidin-1-yl)-6-morpholin-4-yl-[1,3,5]triazin-2-yl]amine], the IC50 under setting [1] is above 1000 nM.

For `CCOC(=O)c1ccc(Nc2nc(Nc3ccc(C)c(C)c3)nc(N3CCOCC3)n2)cc1` [VIRADEM-11913, 4-[4-(3,4-Dimethylphenylamino)-6-morpholin-4-yl-[1,3,5]-2-ylamino]-benzoic acid ethyl ester], under setting [2], the IC50 is 40 nM.

For `COc1ccccc1Nc1nc(N2CCOCC2)nc(N2CCOCC2)n1` [VIRADEM-10881, (4,6-Dimorpholin-4-yl-[1,3,5]triazin-2-yl)-(2-methoxyphenyl)-amine hydrochloride], the IC50 under setting [1] was above 1000 nM.

By IC50 is commonly meant the concentration that gives 50% inhibition.
